Where a SMILES comes first, the peptide text is derived from it. Bridges are numbered along the chain shown (N, C = ends). [ ]: non-standard residue; d: D form. The star is where a group is joined. Ileψ(thiazoline)Cys = CC[C@H](C)[C@H](N)C1=N[C@H](C(=O)*)CS1; dOrn = NCCC[C@@H](N)C(=O)O
System: Bifidobacterium longum R175
Test: antibiotic resistance profile
Type: cell-based
Conditions: dose of each agent

| Molecule | outcome (antibiotic resistance profile) |
| --- | --- |
| CC1(C)S[C@@H]2[C@H](NC(=O)[C@H](N)c3ccccc3)C(=O)N2[C@H]1C(=O)O [Ampicillin] | susceptible |
| CC[C@H](C)[C@H](N)C1=N[C@H](C(=O)N[C@@H](CC(C)C)C(=O)N[C@H](CCC(=O)O)C(=O)N[C@H](C(=O)N[C@H]2CCCCNC(=O)[C@H](CC(N)=O)NC(=O)[C@@H](CC(=O)O)NC(=O)[C@H](Cc3cnc[nH]3)NC(=O)[C@@H](Cc3ccccc3)NC(=O)[C@H]([C@@H](C)CC)NC(=O)[C@@H](CCCN)NC2=O)[C@@H](C)CC)CS1 [Bacitracin] ({Ileψ(thiazoline)Cys}-L[dE]IK[dOrn]I[dF]H[dD]N; lactam 4-C) | susceptible |
| CO[C@H]1/C=C/O[C@@]2(C)Oc3c(C)c(O)c4c(O)c(c(/C=N/N5CCN(C)CC5)c(O)c4c3C2=O)NC(=O)/C(C)=C\C=C\[C@H](C)[C@H](O)[C@@H](C)[C@@H](O)[C@@H](C)[C@H](OC(C)=O)[C@@H]1C [Rifampin] | susceptible |
| CN[C@H](CC(C)C)C(=O)N[C@H]1C(=O)N[C@@H](CC(N)=O)C(=O)N[C@H]2C(=O)N[C@H]3C(=O)N[C@H](C(=O)N[C@H](C(=O)O)c4cc(O)cc(O)c4-c4cc3ccc4O)[C@H](O)c3ccc(c(Cl)c3)Oc3cc2cc(c3O[C@@H]2O[C@H](CO)[C@@H](O)[C@H](O)[C@H]2O[C@H]2C[C@](C)(N)[C@H](O)[C@H](C)O2)Oc2ccc(cc2Cl)[C@H]1O [Vancomycin] | susceptible |
| CC(=O)OCC1=C(C(=O)O)N2C(=O)[C@@H](NC(=O)Cc3cccs3)[C@H]2SC1 [cephalothin] | susceptible |
| O=C(N[C@H](CO)[C@H](O)c1ccc([N+](=O)[O-])cc1)C(Cl)Cl [chloramphenicol] | susceptible |
| CC[C@H]1OC(=O)[C@H](C)[C@@H](O[C@H]2C[C@@](C)(OC)[C@@H](O)[C@H](C)O2)[C@H](C)[C@@H](O[C@@H]2O[C@H](C)C[C@H](N(C)C)[C@H]2O)[C@](C)(O)C[C@@H](C)C(=O)[C@H](C)[C@@H](O)[C@]1(C)O [erythromycin] | susceptible |
| CCC[C@@H]1C[C@@H](C(=O)N[C@@H]([C@H]2O[C@H](SC)[C@H](O)[C@@H](O)[C@H]2O)[C@@H](C)O)N(C)C1 [lincomycin] | intermediate |
| CO[C@@H]1[C@@H](OC(N)=O)[C@@H](O)[C@H](Oc2ccc3c(O)c(NC(=O)c4ccc(O)c(CC=C(C)C)c4)c(=O)oc3c2C)OC1(C)C [novobiocin] | susceptible |
| CC1(C)S[C@@H]2[C@H](NC(=O)Cc3ccccc3)C(=O)N2[C@H]1C(=O)O [penicillin G] | susceptible |
| [H]/N=C(/N)N[C@H]1[C@H](O)[C@@H](O)[C@H](O[C@@H]2O[C@@H](C)[C@](O)(C=O)[C@H]2O[C@@H]2O[C@@H](CO)[C@H](O)[C@@H](O)[C@@H]2NC)[C@@H](N/C(N)=N\[H])[C@@H]1O [streptomycin] | resistant |
| Cc1noc(NS(=O)(=O)c2ccc(N)cc2)c1C [sulfisoxazole] | resistant |
| Neomycin | resistant |
| Polymyxin B | resistant |
| gentamycin | resistant |

From patent US11478515B2, “Compositions comprising probiotic and prebiotic components and mineral salts, with lactoferrin” (GlaxoSmithKline Consumer Healthcare S.R.L., priority 2009, dated 2022)
